Tests used:
[1] = target: T1, PAR2 (HT-29 cells, SLIGKV activation) (Homo sapiens, UniProt P55085); assay: Ca FLIPR TETRA assay, ANTAGONIST mode, stimulation with 8 μM SLIGKV; type: cell-based; conditions: HT-29 cells
T1 construct: host or cells: HT-29 cells
T1 sequence (P55085 26-397): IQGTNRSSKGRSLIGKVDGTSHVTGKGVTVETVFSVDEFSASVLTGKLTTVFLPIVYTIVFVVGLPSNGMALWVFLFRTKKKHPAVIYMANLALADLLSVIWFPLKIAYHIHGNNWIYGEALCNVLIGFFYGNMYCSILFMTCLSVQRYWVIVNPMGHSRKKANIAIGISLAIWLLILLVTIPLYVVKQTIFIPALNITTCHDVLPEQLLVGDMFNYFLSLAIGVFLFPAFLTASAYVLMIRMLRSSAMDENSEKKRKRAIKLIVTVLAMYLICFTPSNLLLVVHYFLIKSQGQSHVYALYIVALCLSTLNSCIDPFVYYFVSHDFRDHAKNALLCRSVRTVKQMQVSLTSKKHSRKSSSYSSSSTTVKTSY
In short: (§1)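 Cells plated overnight at 37 °C, 5% CO2 in 1% FBS medium; dye loading 45 min at 37 °C then 15 min r.t.; compound added from DMSO/HBSS dilution; first read for intrinsic Ca2+ activation; 30 min r.t. incubation; antagonist read after addition of the fixed activator (8 μM SLIGKV, 1 U/mL thrombin, 3.1 U/mL trypsin or 0.6 μM UTP).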

[2] = target: T2, PAR2 (HT-29 cells, trypsin activation) (Homo sapiens, UniProt P55085); assay: Ca FLIPR TETRA assay, ANTAGONIST mode, stimulation with 3.1 U/mL trypsin; type: cell-based; conditions: HT-29 cells
T2 construct: host or cells: HT-29 cells
T2 sequence (P55085 26-397): T1 sequence (P55085 26-397)
In short: as §1

[3] = test system: Thrombin-stimulated Ca2+ response in HT-29 cells; assay: Ca FLIPR TETRA assay, ANTAGONIST mode, stimulation with 1 U/mL Thrombin; type: cell-based, human; conditions: Homo sapiens, HT-29 cells
In short: as §1

[4] = test system: UTP-stimulated Ca2+ response in HT-29 cells; assay: Ca FLIPR TETRA assay, ANTAGONIST mode, stimulation with 0.6 μM UTP; type: cell-based, human; conditions: Homo sapiens, HT-29 cells
In short: as §1

[5] = stimulation with 3.1 U/mL trypsin
[6] = stimulation with 1 U/mL Thrombin
[7] = antagonist mode, stimulation with 8 μM SLIGKV
[8] = antagonist mode, stimulation with 3.1 U/mL trypsin
[9] = antagonist mode, stimulation with 1 U/mL Thrombin
[10] = antagonist mode, stimulation with 0.6 μM UTP

| SMILES | IC50 ([1]; stimulation with 8 μM SLIGKV) [nM] | IC50 [2, 5] [nM] | IC50 [3, 6] [nM] | IC50 ([4]; stimulation with 0.6 μM UTP) [nM] | IC50 [1, 7] [nM] | IC50 [2, 8] [nM] | IC50 [3, 9] [nM] | IC50 [4, 10] [nM] | further results |
| --- | --- | --- | --- | --- | --- | --- | --- | --- | --- |
| CC(C)c1cc(-c2ccc(F)cc2)nn2cc(C(=O)N3CCN(C(=O)C4(N)CC4)[C@@H](C)C3)nc12 [Compound I-154] | 1400 | 6400 | > 50000 | > 50000 | – | – | – | – | – |
| CC(C)c1cc(-c2ccc(F)cc2)nn2cc(C(=O)N3CCN(C(=O)C4(O)CCC4)C[C@H]3C)nc12 [Compound I-178] | 4800 | 8300 | 43000 | 14000 | – | – | – | – | – |
| Cc1nnc(C(=O)N2CCN(C(=O)c3cn4nc(-c5ccc(C(F)(F)F)cc5)cc(C(C)C)c4n3)C(C)(C)C2)o1 [Compound I-280] | – | – | – | – | 9.6 | 6 | > 1000 | > 1000 | – |
| Cc1cc(-c2cc(C(C)C)c3nc(C(=O)N4CCN(CO)C(=O)C4(C)C)cn3n2)ccc1F [Compound I-470] | – | – | – | – | 25.7 | 31.7 | > 1000 | > 1000 | – |
| COC(=O)C(C)(C)CC(=O)N1CCN(C(=O)c2cn3nc(-c4ccc(F)cc4)cc(C(C)(C)C)c3n2)C(C)(C)C1 [Compound I-528] | – | – | – | – | 1.8 | 4.2 | > 1000 | > 1000 | – |
| CCCCC(=O)N1CCN(C(=O)c2cn3nc(-c4ccc(F)cc4)cc(C(C)C)c3n2)C[C@@H]1C [Compound I-147] | 6 | 61 | 8000 | 6600 | – | – | – | – | – |
| CC(C)(C)c1cc(C2CCC(F)(F)CC2)nn2cc(C(=O)N3CCN(C(=O)[C@H]4C[C@H](C(=O)O)C4)CC3(C)C)nc12 [Compound I-515] | – | – | – | – | 62.5 | 110 | > 1000 | > 1000 | – |
| CC(C)c1cc(-c2ccc(Cl)c(F)c2)nn2cc(C(=O)N3CCNC(=O)C3(C)C)nc12 [Compound I-354] | – | – | – | – | 1.2 | 1.3 | > 1000 | > 1000 | – |
| CCc1cc(-c2ccc(F)cc2)nn2cc(C(=O)N3CCN(C(=O)OC(C)(C)C)[C@@H](C)C3)nc12 [Compound I-3, tert-Butyl (2S)-4-[8-ethyl-6-(4-fluorophenyl)imidazo[1,2-b]pyridazine-2-carbonyl]-2-methyl-piperazine-1-carboxylate] | 160 | 825 | 18000 | 16000 | – | – | – | – | – |
| CC(C)c1cc(-c2ccc(F)cc2)nn2cc(C(=O)N3CCNC(=O)C3(C)C)nc12 [Compound I-25, 4-[6-(4-fluorophenyl)-8-isopropyl-imidazo[1,2-b]pyridazine-2-carbonyl]-3,3-dimethyl-piperazin-2-one] | 9 | 21 | > 50000 | > 50000 | – | – | – | – | – |
| CC(C)(C)c1cc(C2CCC(F)(F)CC2)nn2cc(C(=O)N3CCNC(=O)C3(C)C)nc12 [Compound I-428] | – | – | – | – | 30.7 | 59.7 | > 1000 | > 1000 | – |
| O=C(c1cn2nc(-c3ccc(F)cc3)cc(C(F)(F)F)c2n1)N1CCCCC1c1ccccc1 (stereo not shown) [Compound I-71] | 950 | 680 | 43000 | > 50000 | – | – | – | – | – |
| CC(C)(C)c1cc(-c2ccc(F)cc2)nn2cc(C(=O)N3CCN(C(=O)c4ccon4)CC3(C)C)nc12 [Compound I-203] | – | – | – | – | 0.7 | 1 | > 1000 | > 1000 | – |
| CC(C)c1cc(-c2ccc(F)c(F)c2)nn2cc(C(=O)N3CCN(C(=O)c4ccn[nH]4)CC3(C)C)nc12 [Compound I-258] | – | – | – | – | 1.7 | 1.9 | > 1000 | > 1000 | – |
| Cc1ccc(-c2cc(C(C)C)c3nc(C(=O)N4CCN(C(=O)c5nc[nH]n5)CC4(C)C)cn3n2)cc1F [Compound I-336] | – | – | – | – | 5 | 2.8 | > 1000 | > 1000 | – |
| CC(C)c1cc(-c2ccc(F)cc2)nn2cc(C(=O)N3CCN(C(=O)C4(NC(=O)OC(C)(C)C)CCCCC4)[C@@H](C)C3)nc12 [Compound I-150] | 74 | 230 | > 50000 | 84000 | – | – | – | – | – |
| CC(C)(C)c1cc(-c2ccc(F)cc2)nn2cc(C(=O)N3CCN(C(=O)C(C)(N)C(F)(F)F)CC3(C)C)nc12 (stereo not shown) [Compound I-318] | – | – | – | – | 1.7 | 2.2 | > 1000 | > 1000 | – |

| SMILES | IC50 ([1]; stimulation with 8 μM SLIGKV) [nM] | IC50 [2, 5] [nM] | IC50 [3, 6] [nM] | IC50 ([4]; stimulation with 0.6 μM UTP) [nM] | IC50 [1, 7] [nM] | IC50 [2, 8] [nM] | IC50 [3, 9] [nM] | IC50 [4, 10] [nM] | further results |
| --- | --- | --- | --- | --- | --- | --- | --- | --- | --- |
| CC(C)c1cc(-c2ccc(F)cc2)nn2cc(C(=O)N3CCN(C(=O)[C@H](O)c4ccccc4Cl)[C@@H](C)C3)nc12 [Compound I-106] | 0.6 | 1 | > 5000 | > 5000 | – | – | – | – | – |
| CC(C)(C)c1cc(-c2ccc(F)cc2)nn2cc(C(=O)N3CCOC(=O)C3(C)C)nc12 [Compound I-510] | – | – | – | – | 6.8 | 8.8 | > 1000 | > 1000 | – |
| Cc1ccc(-c2cc(C(C)(C)C)c3nc(C(=O)N4CCN(c5cn[nH]c5)C(=O)C4(C)C)cn3n2)cc1F [Compound I-365] | – | – | – | – | 1.1 | 1.5 | > 1000 | > 1000 | – |
| Cc1ccc(-c2cc(C(C)C)c3nc(C(=O)N4CCN(C(=O)c5ncccn5)CC4(C)C)cn3n2)cc1F [Compound I-373] | – | – | – | – | 6.5 | 8.1 | > 1000 | > 1000 | – |
| CC(C)c1cc(C#CC2CC2)nn2cc(C(=O)N3CCN(C(=O)C4(O)CCC4)CC3(C)C)nc12 [Compound I-42, [6-(2-Cyclopropylethynyl)-8-isopropyl-imidazo[1,2-b]pyridazin-2-yl]-[4-(1-hydroxycyclobutanecarbonyl)-2,2-dimethyl-piperazin-1-yl]methanone] | 2200 | 5200 | 32000 | 41000 | – | – | – | – | – |
| CC(C)(C)c1cc(-c2ccccc2F)nn2cc(C(=O)N3CCNC(=O)C3(C)C)nc12 [Compound I-473] | – | – | – | – | 15 | 25.5 | 475 | 390 | – |
| CCOC(=O)/C=C/C(=O)N1CCN(C(=O)c2cn3nc(-c4ccc(F)cc4)cc(C(C)(C)C)c3n2)C(C)(C)C1 [Compound I-531] | – | – | – | – | 1.2 | 2 | > 1000 | > 1000 | – |
| Cc1cccc(-c2cc(C(C)(C)C)c3nc(C(=O)N4CCNC(=O)C4(C)C)cn3n2)c1 [Compound I-350] | – | – | – | – | 12.9 | 13.7 | > 1000 | > 1000 | – |
| CC(C)c1cc(-c2ccc(Cl)cc2)nn2cc(C(=O)N3CCN(C(=O)[C@H]4C[C@H](C(=O)O)C4)CC3(C)C)nc12 [Compound I-554] | – | – | – | – | – | – | – | – | IC50 ([1]; antagonist mode, 8 μM SLIGKV): 9.3 nM; IC50 ([2]; antagonist mode, 3.1 U/mL trypsin): 11.2 nM; IC50 ([3]; antagonist mode, 1 U/mL Thrombin): > 1000 nM; IC50 ([4]; antagonist mode, 0.6 μM UTP): > 1000 nM |
| CC(C)(C)c1cc(-c2ccc(F)cc2)nn2cc(C(=O)N3CCN(C(=O)C4CCCO4)CC3(C)C)nc12 (stereo not shown) [Compound I-200] | – | – | – | – | 2.4 | 2.9 | > 1000 | > 1000 | – |
| C[C@H]1CN(C(=O)c2cn3nc(-c4ccc(F)cc4)cc(C(C)(C)C)c3n2)C(C)(C)C(=O)N1 [Compound I-226] | – | – | – | – | 525 | 760 | > 1000 | > 1000 | – |
| CC(C)(O)CN1CCN(C(=O)c2cn3nc(-c4ccc(F)cc4)cc(C(C)(C)C)c3n2)C(C)(C)C1=O [Compound I-225] | – | – | – | – | 1.3 | 2.5 | 230 | 230 | – |
| NC(=O)C1CCCCN1C(=O)c1cn2nc(-c3ccc(F)cc3)cc(C(F)(F)F)c2n1 (stereo not shown) [Compound I-81] | 6700 | 12000 | 9200 | 17000 | – | – | – | – | – |
| CC(C)c1cc(-c2ccc(F)cc2)nn2cc(C(=O)N3CCN(C(=O)CC4CCCCC4)[C@@H](C)C3)nc12 [Compound I-128] | 2 | 2 | 30000 | 31000 | – | – | – | – | – |
| CC(C)(C)c1cc(-c2ccc(F)c(Cl)c2)nn2cc(C(=O)N3CCN(C(=O)c4ccccn4)CC3(C)C)nc12 [Compound I-458] | – | – | – | – | 1.3 | 2.1 | > 1000 | > 1000 | – |
| CC(C)c1cc(-c2ccc(F)cc2)nn2cc(C(=O)N3CCN(C(=O)Cc4ccsc4)[C@@H](C)C3)nc12 [Compound I-125] | 2 | 5 | > 500 | > 500 | – | – | – | – | – |
| C[C@H]1CN(C(=O)c2cn3nc(-c4ccc(F)cc4)cc(C(F)(F)F)c3n2)CCN1C(=O)[C@@H](CC1CCCCC1)NC(=O)OC(C)(C)C [Compound I-15, tert-Butyl N-[(1R)-1-(cyclohexylmethyl)-2-[(2S)-4-[6-(4-fluorophenyl)-8-(trifluoromethyl)imidazo[1,2-b]pyridazine-2-carbonyl]-2-methyl-piperazin-1-yl]-2-oxo-ethyl]carbamate] | 47 | 58 | > 50000 | > 50000 | – | – | – | – | – |

Source: patent US20190119282A1, “IMIDAZOPYRIDAZINES USEFUL AS INHIBITORS OF THE PAR-2 SIGNALING PATHWAY” (Vertex Pharmaceuticals Incorporated, priority 2013, published 2019)
